A short description of experiment [1]: Antiproliferative activity against Wistar/Sprague-Dawley rat cardiac fibroblasts assessed as inhibition of cell proliferation at 10 uM measured after 24 hrs by MTT assay relative to control. To be noted: Fibroblast. Format: functional, CF [Rat heart fibroblast]. For orientation: Tetrazolium dyes change colour on reduction, which living cells bring about.
For experiment [2], the target named is T1, Autotaxin (Homo sapiens, UniProt Q13822). The experiment can be described thus: Inhibition of glycosylated human ATX using FS-3 as substrate preincubated for 45 mins under shaking condition followed by substrate addition and measured after 45 mins by fluorescence assay.
Experiment [3] in a line: Antiproliferative activity against Sprague-Dawley rat T-HSC/Cl-6 assessed as inhibition of cell proliferation at 10 uM measured after 24 hrs by MTT assay relative to control. Format: functional.
The nature of experiment [4]: Antiproliferative activity against Wistar/Sprague-Dawley rat cardiac fibroblasts assessed as inhibition of cell proliferation measured after 24 hrs by MTT assay. Type of experiment: functional, CF [Rat heart fibroblast]. To be noted: Fibroblast.
Experiment [5] has as its system Mus musculus. The experiment can be described thus: Antifibrotic activity against CCl4-induced fibrosis in Kunming mouse assessed as decrease in steatosis at 20 mg/kg, po administered for 2 weeks post CCl-4 challenge by hematoxylin and eosin staining based light microscopic analysis. Type of experiment: functional, organism-based.
Experiment [6] has as its system Mus musculus. The experiment can be described thus: Antifibrotic activity against CCl4-induced fibrosis in Kunming mouse assessed as loss of bile ductules at 40 mg/kg, po administered for 2 weeks post CCl-4 challenge by Masson staining based light microscopic analysis. Format: functional, organism-based.
The test system of experiment [7] is Mus musculus. In words: Antifibrotic activity against CCl4-induced fibrosis in Kunming mouse assessed as loss of inflammatory cells at 40 mg/kg, po administered for 2 weeks post CCl-4 challenge by hematoxylin and eosin staining based light microscopic analysis. Format: functional, organism-based.
The next experiment has as its system Cardiac fibroblast. In words: Antifibrotic activity against TGFbeta-induced fibrosis in mouse cardiac fibroblasts assessed as reduction in collagen content at 10 ug/ml pretreated with TGFbeta followed by compound treatment and measured after 12 hrs by SDS-PAGE analysis. Format: functional. To be noted: dose 10.0 µg/ml.
For experiment [8], the system named is Mus musculus. The experiment can be described thus: Antifibrotic activity against CCl4-induced fibrosis in Kunming mouse assessed as loss of fiber accumulation at 40 mg/kg, po administered for 2 weeks post CCl-4 challenge by hematoxylin and eosin staining based light microscopic analysis. Type of experiment: functional, organism-based.
Experiment [9] relates to Mus musculus. The experiment can be described thus: Antifibrotic activity against CCl4-induced fibrosis in Kunming mouse assessed as decrease in fiber accumulation at 20 mg/kg, po administered for 2 weeks post CCl-4 challenge by Masson staining based light microscopic analysis. Format: functional, organism-based.
Experiment [10] has as its system Mus musculus. The experiment can be described thus: Antifibrotic activity against CCl4-induced fibrosis in Kunming mouse assessed as decrease in inflammatory cells infiltration at 20 mg/kg, po administered for 2 weeks post CCl-4 challenge by hematoxylin and eosin staining based light microscopic analysis. Type of experiment: functional, organism-based.
Experiment [11] can be described thus: Antiproliferative activity against Sprague-Dawley rat T-HSC/Cl-6 assessed as inhibition of cell proliferation measured after 24 hrs by MTT assay. To be noted: T-HSC/Cl-6, 24 h. Type of experiment: functional.
The test system of experiment [12] is Mus musculus. In words: Antifibrotic activity against CCl4-induced fibrosis in Kunming mouse assessed as loss of inflammatory cells at 40 mg/kg, po administered for 2 weeks post CCl-4 challenge by Masson staining based light microscopic analysis. Format: functional, organism-based.
Experiment [13] concerns Mus musculus. The experiment can be described thus: Antifibrotic activity against CCl4-induced fibrosis in Kunming mouse assessed as decrease in fiber accumulation at 20 mg/kg, po administered for 2 weeks post CCl-4 challenge by hematoxylin and eosin staining based light microscopic analysis. Type of experiment: functional, organism-based.
Experiment [14] deals with Mus musculus. In words: Antifibrotic activity against CCl4-induced fibrosis in Kunming mouse assessed as loss of bile ductules at 40 mg/kg, po administered for 2 weeks post CCl-4 challenge by hematoxylin and eosin staining based light microscopic analysis. Format: functional, organism-based.
Experiment [15] deals with Mus musculus. In words: Antifibrotic activity against CCl4-induced fibrosis in Kunming mouse assessed as decrease in steatosis at 20 mg/kg, po administered for 2 weeks post CCl-4 challenge by Mason staining based light microscopic analysis. Format: functional, organism-based.
Experiment [16] relates to Mus musculus. The experiment can be described thus: Antifibrotic activity against CCl4-induced fibrosis in Kunming mouse assessed as loss of fiber accumulation at 40 mg/kg, po administered for 2 weeks post CCl-4 challenge by Masson staining based light microscopic analysis. Format: functional, organism-based.
The subject of experiment [17] is Mus musculus. The experiment can be described thus: Antifibrotic activity against CCl4-induced fibrosis in Kunming mouse assessed as decrease in inflammatory cells infiltration at 20 mg/kg, po administered for 2 weeks post CCl-4 challenge by Masson staining based light microscopic analysis. Format: functional, organism-based.
Experiment [18] concerns the target T1, Autotaxin. In words: Inhibition of human ATX using FS-3 as substrate measured after 30 mins by fluorescence plate reader assay.
Experiment [19] in a line: Antifibrotic activity against TGFbeta-induced fibrosis in mouse cardiac fibroblasts assessed as reduction in collagen content at 10 ug/ml pretreated with TGFbeta followed by compound treatment and measured after 12 hrs by SDS-PAGE analysis relative to control. The arrangement: scale not given: the % may be the effect or the level left. Format: functional, Cardiac fibroblast. To be noted: dose 10 µg/ml.

This note sets out measurements from ChEMBL document CHEMBL4706481, “Optimization and evaluation of novel tetrahydropyrido[4,3-d]pyrimidine derivatives as ATX inhibitors for cardiac and hepatic fibrosis” (Eur J Med Chem, 2020).

Activity calls are given as the source filed them. No cut-off for these calls is given here.

As to `O=C(N/N=C/c1cccc(Br)c1)N1CCc2ncnc(Nc3cccc(C(F)(F)F)c3)c2C1`, the inhibition at 10 µM in [1] was 54.6%; in [3], 68.1%. The compound also had a half-inhibitory concentration (IC50) against Autotaxin [2] of 0.0353 µM.

In the case of `O=C(N/N=C/c1cccnc1)N1CCc2ncnc(Nc3cccc(C(F)(F)F)c3)c2C1`, the inhibition at 10 µM turned out to be 41.2% in [1] and 63.2% in [3].

Consider `O=C(N/N=C/c1cc([N+](=O)[O-])ccc1Cl)N1CCc2ncnc(Nc3ccc(F)c(Cl)c3)c2C1`, for which the inhibition at 10 µM in experiment [1] was found to be 72.1%; in experiment [3], 74.7%. The compound also gave an IC50 at Autotaxin [2] of 0.0438 µM.

With `CS(=O)(=O)c1ccc(/C=N/NC(=O)N2CCc3ncnc(Nc4cccc(C(F)(F)F)c4)c3C2)cc1`, the values for the inhibition at 10 µM in experiment [1] and in experiment [3] were 45.9% and 61.5%, respectively. Also, the IC50 against Autotaxin [2] is 0.0358 µM.

Turning to `O=C(N/N=C/c1ccc[nH]1)N1CCc2ncnc(Nc3cccc(C(F)(F)F)c3)c2C1`, the inhibition at 10 µM in [1] was 51.3%; in [3], 68.8%.

Consider `O=C(N/N=C/c1ccc(Cl)cc1)N1CCc2ncnc(Nc3cccc(C(F)(F)F)c3)c2C1`, for which the inhibition at 10 µM was determined as 73.8% in experiment [1] and 83.7% in [3]. Besides, the half-maximal inhibitory concentration (IC50) against Autotaxin [2] turned out to be 0.0153 µM; in experiment [4], 1.21 µM; in experiment [11], 0.78 µM. Also, the result with Mus musculus [5], in the experiment on Mus musculus [6], in the experiment with Mus musculus [7], in the experiment on Cardiac fibroblast, with Mus musculus [8] and in the experiment on Mus musculus [9] was Active. Besides, the result in the experiment on Mus musculus [10], with Mus musculus [12], with Mus musculus [13], in the experiment on Mus musculus [14], in the experiment on Mus musculus [15] and in the experiment on Mus musculus [16] was Active. The outcome with Mus musculus [17] was Active.

Regarding `CS(=O)(=O)c1ccc(/C=N/NC(=O)N2CCc3ncnc(Nc4cccc(Br)c4)c3C2)cc1`, the inhibition at 10 µM in experiment [1] stood at 43.7%; in experiment [3], 55%. On Autotaxin [2], this compound registered an IC50 of 0.0347 µM.

`O=C(N/N=C/c1ccc(OC(F)(F)F)cc1)N1CCc2ncnc(Nc3cccc(C(F)(F)F)c3)c2C1`: the results for the inhibition at 10 µM in experiment [1] and in [3] were 67.1% and 65%, respectively. This compound returned an IC50 against Autotaxin [2] of 0.0412 µM.

As to `O=C(CCc1nc2ccccc2s1)N1CCc2ncnc(Cc3ccc(F)cc3)c2C1`, the inhibition at 10 µM in [1] stood at 68.4%; in experiment [3] it was 73.8%. In addition, the IC50 is 0.0104 µM on Autotaxin [2] and 0.0291 µM against Autotaxin [18].

With `O=C(N/N=C/c1ccccc1)N1CCc2ncnc(Nc3cccc(C(F)(F)F)c3)c2C1`, the inhibition at 10 µM in experiment [1] turned out to be 48.3%; in experiment [3] it was 57.4%.

With `O=C(N/N=C/c1ccco1)N1CCc2ncnc(Nc3cccc(C(F)(F)F)c3)c2C1`, the inhibition at 10 µM in [1] worked out at 54.1%; in experiment [3], 71.5%.

Take `O=C(N/N=C/c1ccc(Cl)cc1)N1CCc2ncnc(Nc3cccc(Br)c3)c2C1`: the inhibition at 10 µM in experiment [1] was found to be 61.1%; in [3], 72.5%. Half-maximal inhibition at Autotaxin [2] (IC50) required 0.0275 µM.

In the case of `O=C(N/N=C/c1cc(C(F)(F)F)cc(C(F)(F)F)c1)N1CCc2ncnc(Nc3cccc(C(F)(F)F)c3)c2C1`, the inhibition at 10 µM worked out at 42.5% in [1] and 62.9% in experiment [3].

For `O=C(N/N=C/c1cccc(C(F)(F)F)c1)N1CCc2ncnc(Nc3cccc(Br)c3)c2C1`, the results for the inhibition at 10 µM in experiment [1] and in experiment [3] were 51.8% and 64.8%, respectively. Further, inhibition on Autotaxin [2] was half-maximal at 0.0302 µM (IC50).

Consider `CS(=O)(=O)c1ccc(/C=N/NC(=O)N2CCc3ncnc(Nc4ccc(F)c(Cl)c4)c3C2)cc1`, for which the values for the inhibition at 10 µM in [1] and in [3] were 66.2% and 60.3%, respectively. The compound further returned an IC50 against Autotaxin [2] of 0.021 µM.

On to `O=C(N/N=C/c1cc(C(F)(F)F)cc(C(F)(F)F)c1)N1CCc2ncnc(Nc3cccc(Br)c3)c2C1`, for which the inhibition at 10 µM in [1] amounted to 70.1%; in experiment [3], 62.1%. Besides, on Autotaxin [2], half-maximal inhibition (IC50) required 0.0291 µM.

For the compound `Cc1ccc(/C=N/NC(=O)N2CCc3ncnc(Nc4cccc(C(F)(F)F)c4)c3C2)cc1`, the inhibition at 10 µM was 72.6% in [1] and 77.2% in experiment [3]. Further, the IC50 against Autotaxin [2] came to 0.0291 µM; in experiment [4] it was 1.51 µM; in [11], 1.14 µM.

Regarding `Cc1ccc(/C=N/NC(=O)N2CCc3ncnc(Nc4cccc(Br)c4)c3C2)cc1C`, the inhibition at 10 µM in [1] came to 41.7%; in experiment [3], 49.2%.

With `O=C(N/N=C/c1cc(F)c(F)cc1Cl)N1CCc2ncnc(Nc3cccc(Br)c3)c2C1`, the inhibition at 10 µM in experiment [1] stood at 41.7%; in experiment [3], 56.7%.

`O=C(N/N=C/c1ccc(OC(F)(F)F)cc1)N1CCc2ncnc(Nc3cccc(Br)c3)c2C1`: the inhibition at 10 µM in experiment [1] is 48.8%; in experiment [3], 54.8%.

For the compound `O=C(N/N=C/c1ccc(F)c(Cl)c1)N1CCc2ncnc(Nc3cccc(Br)c3)c2C1`, the inhibition at 10 µM in experiment [1] was 45.1%; in [3] it was 60.3%.

`O=C(N/N=C/c1ccc(F)cc1Cl)N1CCc2ncnc(Nc3cccc(C(F)(F)F)c3)c2C1`: the inhibition at 10 µM was determined as 55.2% in [1] and 70.6% in [3]. For the same compound, half-maximal inhibition on Autotaxin [2] (IC50) required 0.0269 µM.

Regarding `O=C(N/N=C/c1ccc(O)c(Br)c1)N1CCc2ncnc(Nc3ccc(F)c(Cl)c3)c2C1`, the inhibition at 10 µM is 69% in [1] and 72% in experiment [3]. The compound further had an IC50 against Autotaxin [2] of 0.0313 µM.

In the case of `Cc1cc(C)c(/C=N/NC(=O)N2CCc3ncnc(Nc4ccc(F)c(Cl)c4)c3C2)c(C)c1`, the results for the inhibition at 10 µM in [1] and in experiment [3] were 54% and 58.1%, respectively.

With `O=C(N/N=C/c1ccc(Cl)cc1Cl)N1CCc2ncnc(Nc3cccc(C(F)(F)F)c3)c2C1`, the inhibition at 10 µM in [1] is 58.5%; in [3], 66.3%. For the same compound, half-maximal inhibition against Autotaxin [2] (IC50) required 0.0339 µM.

As to `O=C(N/N=C/c1ccc(Cl)cc1)N1CCc2ncnc(Nc3ccc(F)c(Cl)c3)c2C1`, the inhibition at 10 µM was 81.5% in experiment [1] and 79.4% in experiment [3]. Besides, the half-inhibitory concentration (IC50) is 0.0242 µM against Autotaxin [2], 0.87 µM in experiment [4] and 1.1 µM in [11]. Besides, in the experiment on Cardiac fibroblast, the outcome was Active. The Activity in experiment [19] turned out to be 74.4%.

The term inhibition denotes the share of the control response that was lost under treatment. The term IC50 denotes the midpoint of a concentration-inhibition curve.
